Here are results for 47 sequences from the OligoGym collection.

Where “and” joins values, the source holds several entries; their conditions need not be identical. Equal entries are not always repeated. After the bases stand the sugars from the 5' end (letter, count) and the backbone: PS all phosphorothioate, else s phosphorothioate and o phosphodiester by linkage. Methylation of C is not given here. e = 2'-O-(2-methoxyethyl) (MOE); k = constrained ethyl (cEt); d = 2'-deoxy (DNA)

This data set addresses APOL1. Conditions: ASO.

The sequence “CTTTATACCAGTGTCT (sugars kkkddddkdkdkdddd, PS)” gave a target mRNA inhibition (A431, 2 µM) of 87%.

Consider “TTTATACCAGTGTCTT (sugars k2 d4 e4 k2 d4, PS)”, for which, where the note is “A431, 2 µM”, the target mRNA inhibition is 89%.

“ACGCAATGCTGACTTG (sugars kdddddkekekddddd, PS)” displayed a target mRNA inhibition (A431, 2 µM) of 71%.

The sequence “CGCAATGCTGACTTGG (sugars kkkddddkekekdddd, PS)” returned a target mRNA inhibition (A431, 2 µM) of 68%.

Take “GTTATGAAATTATTGG (sugars kkddddekekeddddd, PS)”: the target mRNA inhibition (A431, 2 µM) amounted to 68%.

In turn, “TTATGAAATTATTGGT (sugars k2 d4 e4 k2 d4, PS)” yielded a target mRNA inhibition (A431, 2 µM) of 35%.

Turning to “TATTTCTTGATGTGGT (sugars kkddddkdkdkddddd, PS)”, the target mRNA inhibition came out at 40% (A431, 0.0156 µM); 71% (A431, 0.0625 µM); 91% (A431, 0.25 µM); 96% (A431, 1 µM); 97% (A431, 2 µM).

Under “A431, 2 µM”, “ACACATCATTGGGTTA (sugars kdddddkekekddddd, PS)” returned a target mRNA inhibition of 47%.

With “GTTCTAACTCTTGGGC (sugars kddddkekekeddddd, PS)”, where the note is “A431, 2 µM”, the target mRNA inhibition worked out at 77%.

“AGTATTGTTTTTGTGG (sugars kkddddkdkdkddddd, PS)” returned a target mRNA inhibition (A431, 2 µM) of 72%.

For the sequence “TGTATTTCTTGATGTG (sugars k2 d4 e3 k2 d5, PS)”, the target mRNA inhibition (A431, 2 µM) was determined as 87%.

Take “TGTTATATTTGATCCT (sugars kkddddkdkdkddddd, PS)”: for the setting “A431, 2 µM”, the target mRNA inhibition was 86%.

Regarding GGGAATTATGGAATTG (sugars k4 d9 k3, PS), the target mRNA inhibition by setting is: (A431, 0.0625 µM) 48% and 59%; (A431, 0.25 µM) 70% and 67%; (A431, 1 µM) 80% and 77%.

Turning to TTCAGAATTTCCACTA (sugars k4 d9 k3, PS), the target mRNA inhibition is 40% (A431, 0.0625 µM); 67% (A431, 0.25 µM); 87% (A431, 1 µM).

As for “ATTCTCATGGTACAGG (sugars k3 d4 k3 e1 d5, PS)”, the target mRNA inhibition by setting is: (A431, 0.0156 µM) 17%; (A431, 0.0625 µM) 48%; (A431, 0.25 µM) 72%; (A431, 1 µM) 88%; (A431, 2 µM) 93%.

Sequence “GTTTTGTAAGTGCAAC (sugars k2 d4 e3 k2 d5, PS)” displayed a target mRNA inhibition (A431, 2 µM) of 83%.

On to “ACGCAATGCTGACTTG (sugars kkdddddkekeddddd, PS)”, for which the target mRNA inhibition (A431, 2 µM) worked out at 89%.

In the case of TTTTGTAAGTGCAACC (sugars k4 d9 k3, PS), the target mRNA inhibition was 47% (A431, 0.0625 µM); 84% (A431, 0.25 µM); 95% (A431, 1 µM).

“GTATTTCTTGATGTGG (sugars k3 d4 k3 e1 d5, PS)” had a target mRNA inhibition (A431, 2 µM) of 98%.

Take AAAGAACTCAAGTCAG (sugars k4 d9 k3, PS): the target mRNA inhibition reads like this: (A431, 0.25 µM) 61% and 82%; (A431, 1 µM) 83% and 90%.

“TCTATTAGAGGGCTAG (sugars kkddddkekekkdddd, PS)”: where the note is “A431, 2 µM”, the target mRNA inhibition came to 25%.

The sequence “TGGTTCAAAAGCAGCA (sugars kkddddkekekddddd, PS)” came in with a target mRNA inhibition (A431, 2 µM) of 68%.

Take GATTCTGTGTGCTCAC (sugars k4 d9 k3, PS): the target mRNA inhibition turned out to be 46% (A431, 0.0625 µM); 72% (A431, 0.25 µM); 87% (A431, 1 µM).

Consider “AGCTTTAAACTCAGGT (sugars kkddddekekeddddd, PS)”, for which, where the note is “A431, 2 µM”, the target mRNA inhibition is 92%.

With “TTCTCATGGTACAGGA (sugars k3 d4 k3 e1 d5, PS)”, the target mRNA inhibition (A431, 2 µM) worked out at 44%.

In turn, “ATTCTATTAGAGGGCT (sugars kkddddekekeddddd, PS)” registered a target mRNA inhibition (A431, 2 µM) of 25%.

With “GTATTTCTTGATGTGG (sugars k3 d5 k3 d5, PS)”, the target mRNA inhibition reads like this: (A431, 0.25 µM) 95% and 98% and 99%; (A431, 1 µM) 97% and 99% and 100%; (A431, 2 µM) 99% and 100%.

With GTCTAAAGTAAACTGC (sugars k4 d9 k3, PS), the target mRNA inhibition was 65% and 83% (A431, 0.25 µM); 81% and 89% (A431, 1 µM).

On to “GAAGATTGGCTCTGGC (sugars k3 d4 k3 e1 d5, PS)”, for which the target mRNA inhibition (A431, 2 µM) is 70%.

As to AATTTTATGGAACCTC (sugars k3 d10 k3, PS), the target mRNA inhibition reads like this: (A431, 0.0625 µM) 37%; (A431, 0.25 µM) 74%; (A431, 1 µM) 90%.

With TCAGCTATGGAAATGC (sugars k4 d9 k3, PS), the target mRNA inhibition reads like this: (A431, 0.0625 µM) 45%; (A431, 0.25 µM) 78%; (A431, 1 µM) 92%.

For the sequence TCCTGGGCGGCGACAA (sugars k4 d9 k3, PS), the target mRNA inhibition amounted to 46% (A431, 0.0625 µM); 74% (A431, 0.25 µM); 85% (A431, 1 µM).

In turn, “GGAATTATGGAATTGC (sugars kkkddddkdkdkdddd, PS)” gave a target mRNA inhibition (A431, 2 µM) of 76%.

As to TTTGTAAGTGCAACCA (sugars k4 d9 k3, PS), the target mRNA inhibition is 37% and 23% (A431, 0.04 µM); 70% (A431, 0.0625 µM); 91% (A431, 0.25 µM); 97% and 96% and 93% (A431, 1 µM).

With “AGTTTTGTAAGTGCAA (sugars kkddddekekeddddd, PS)”, the target mRNA inhibition was 25% (A431, 0.0156 µM); 53% (A431, 0.0625 µM); 79% (A431, 0.25 µM); 91% (A431, 1 µM); 91% (A431, 2 µM).

AATATCAGAGTGTACC (sugars k4 d9 k3, PS) returned a target mRNA inhibition (A431, 0.0625 µM) of 51%; a target mRNA inhibition (A431, 0.25 µM) of 73%; a target mRNA inhibition (A431, 1 µM) of 84%.

Take “GCTAATTTTCTGACTG (sugars k3 d4 k3 e1 d5, PS)”: the target mRNA inhibition runs as follows: (A431, 0.0156 µM) 2%; (A431, 0.0625 µM) 46%; (A431, 0.25 µM) 76%; (A431, 1 µM) 87%; (A431, 2 µM) 92%.

Regarding ACTTTTTCACCATAGC (sugars k4 d9 k3, PS), the target mRNA inhibition runs as follows: (A431, 0.0625 µM) 53%; (A431, 0.25 µM) 82%; (A431, 1 µM) 93%.

For the sequence “TCAGATGGGTACTTCT (sugars kkkddddkekekdddd, PS)”, the target mRNA inhibition (A431, 2 µM) was 50%.

As to TCATAGATACTCCTCA (sugars k3 d10 k3, PS), the target mRNA inhibition reads like this: (A431, 0.0156 µM) 8%; (A431, 0.0625 µM) 17%; (A431, 0.25 µM) 51%; (A431, 1 µM) 80%.

Regarding “CTAATTTTCTGACTGT (sugars kkddddkdkdkddddd, PS)”, where the note is “A431, 2 µM”, the target mRNA inhibition is 84%.

Take “AGCTTTAAACTCAGGT (sugars kkkddddkdkdkdddd, PS)”: where the note is “A431, 2 µM”, the target mRNA inhibition was 74%.

Where the note is “A431, 2 µM”, “CATTCAGAATTTCCAC (sugars kddddkekekeddddd, PS)” returned a target mRNA inhibition of 58%.

Take ACCCTTTTGGCACCTT (sugars k4 d9 k3, PS): the target mRNA inhibition reads like this: (A431, 0.0625 µM) 49%; (A431, 0.25 µM) 79% and 76%; (A431, 1 µM) 92% and 89%.

ATTCTATTGGGCCTCA (sugars k4 d9 k3, PS) had a target mRNA inhibition (A431, 0.0625 µM) of 28%; a target mRNA inhibition (A431, 0.25 µM) of 62%; a target mRNA inhibition (A431, 1 µM) of 86%.

Consider AGATGGGTACTTCTGT (sugars k4 d9 k3, PS), for which the target mRNA inhibition by setting is: (A431, 0.0625 µM) 85%; (A431, 0.25 µM) 88%; (A431, 1 µM) 93%.

“AGTATTGCCAGCTAAG (sugars k2 d4 e3 k2 d5, PS)” came in with a target mRNA inhibition (A431, 2 µM) of 86%.
